Laboratory results published in patent publication US6686355B2, “Biphenyl sulfonamides useful as matrix metalloproteinase inhibitors” (Warner-Lambert Company, priority 2001, dated 2004).

Tests used:
Format in all cases: biochemical
[1] = biological target: T1, MMP-1FL (full length interstitial collagenase) (Homo sapiens, UniProt P03956); experiment: Thiopeptolide hydrolysis assay, MMP-1FL; conditions: thiopeptolide substrate, HEPES pH 7.0, 22° C.
T1 sequence (P03956 100-469): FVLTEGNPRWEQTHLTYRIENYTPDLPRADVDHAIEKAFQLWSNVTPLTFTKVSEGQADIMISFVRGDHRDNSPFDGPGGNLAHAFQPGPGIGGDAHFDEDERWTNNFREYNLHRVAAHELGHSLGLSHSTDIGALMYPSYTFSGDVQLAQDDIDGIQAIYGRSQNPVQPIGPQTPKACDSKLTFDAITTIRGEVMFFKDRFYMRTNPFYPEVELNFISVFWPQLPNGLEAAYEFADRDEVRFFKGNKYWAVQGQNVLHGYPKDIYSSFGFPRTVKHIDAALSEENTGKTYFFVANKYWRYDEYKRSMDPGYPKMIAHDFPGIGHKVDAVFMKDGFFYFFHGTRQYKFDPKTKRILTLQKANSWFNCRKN
Excerpt: (§1) The assays measure the amount by which a test compound reduces the hydrolysis of a thiopeptolide substrate catalyzed by a matrix metalloproteinase enzyme. Such assays are described in detail by Ye et al., in Biochemistry, 1992;31(45):11231-11235, which is incorporated herein by reference.
(§2) Thiopeptolide substrates show virtually no decomposition or hydrolysis at or below neutral pH in the absence of a matrix metalloproteinase enzyme. A typical thiopeptolide substrate commonly utilized for assays is Ac-Pro-Leu-Gly-thioester-Leu-Leu-Gly-OEt. A 100 μL assay mixture will contain 50 mM of N-2-hydroxyethylpiperazine-N′-2-ethanesulfonic acid buffer (“HEPES”) at pH 7.0, 10 mM CaCl2, 100 μM thiopeptolide substrate, and 1 mM 5,5″-dithio-bis-(2-nitro-benzoic acid) (DTNB). The thiopeptolide substrate concentration may be varied from, for example, 10 to 800 μM to obtain Km and Kcat values. The change in absorbance at 405 nm is monitored on a Thermo Max microplate reader (Molecular Devices, Menlo Park, Calif.) at room temperature (22° C.). The calculation of the amount of hydrolysis of the thiopeptolide substrate is based on E412=13600 M^−1 cm^−1 for the DTNB-derived product 3-carboxy4-nitrothiophenoxide. Assays are carried out with and without matrix metalloproteinase inhibitor compounds, and the amount of hydrolysis is compared for a determination of inhibitory activity of the test compounds.
(§3) Several representative compounds have been evaluated for their ability to inhibit various matrix metalloproteinase enzymes. In Table I, MMP-1FL refers to full length interstitial collagenase; MMP-2FL refers to full length Gelatinase A; MMP-3CD refers to the catalytic domain of stromelysin-1; MMP-7FL refers to full length matrilysin; MMP-9FL refers to full length Gelatinase B; MMP-13CD refers to the catalytic domain of collagenase 3; and MMP-14CD refers to the catalytic domain of MMP-14. Test compounds were evaluated at various concentrations in order to determine their respective IC50 values, the micromolar concentration of compound required to cause a 50% inhibition of the catalytic activity of the respective enzyme.

[2] = biological target: T2, MMP-2FL (full length Gelatinase A) (Homo sapiens, UniProt P08253); experiment: Thiopeptolide hydrolysis assay, MMP-2FL; conditions: thiopeptolide substrate, HEPES pH 7.0, 22° C.
T2 sequence (P08253 110-660): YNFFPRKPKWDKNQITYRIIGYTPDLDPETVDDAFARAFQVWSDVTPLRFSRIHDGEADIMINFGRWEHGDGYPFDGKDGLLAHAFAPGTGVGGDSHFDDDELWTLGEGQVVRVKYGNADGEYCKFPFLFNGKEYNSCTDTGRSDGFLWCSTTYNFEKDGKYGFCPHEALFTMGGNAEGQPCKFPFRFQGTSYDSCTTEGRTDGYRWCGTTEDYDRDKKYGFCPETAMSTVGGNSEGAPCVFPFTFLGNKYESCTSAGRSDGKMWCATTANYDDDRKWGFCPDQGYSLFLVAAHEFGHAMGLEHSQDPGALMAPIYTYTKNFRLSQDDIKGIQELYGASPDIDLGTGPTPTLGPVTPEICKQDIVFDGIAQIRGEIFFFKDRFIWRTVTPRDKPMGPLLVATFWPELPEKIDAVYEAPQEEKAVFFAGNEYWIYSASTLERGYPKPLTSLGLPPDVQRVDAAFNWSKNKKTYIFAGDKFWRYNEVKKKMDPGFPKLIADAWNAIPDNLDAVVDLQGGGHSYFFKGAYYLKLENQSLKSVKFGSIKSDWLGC
Excerpt: as §1, §2, §3

[3] = biological target: MMP-3CD (catalytic domain of stromelysin-1) (Homo sapiens, UniProt P08254); experiment: Thiopeptolide hydrolysis assay, MMP-3CD; conditions: thiopeptolide substrate, MES pH 6.0
Excerpt: as §1, §2, §3
It should be appreciated that the assay buffer used with MMP-3CD was 50 mM of 2-morpholinoethanesulfonic acid monohydrate (“MES”) at pH 6.0 rather than the HEPES buffer at pH 7.0 described above.

[4] = biological target: T3, MMP-7FL (full length matrilysin) (Homo sapiens, UniProt P09237); experiment: Thiopeptolide hydrolysis assay, MMP-7FL; conditions: thiopeptolide substrate, HEPES pH 7.0, 22° C.
T3 sequence (P09237 95-267): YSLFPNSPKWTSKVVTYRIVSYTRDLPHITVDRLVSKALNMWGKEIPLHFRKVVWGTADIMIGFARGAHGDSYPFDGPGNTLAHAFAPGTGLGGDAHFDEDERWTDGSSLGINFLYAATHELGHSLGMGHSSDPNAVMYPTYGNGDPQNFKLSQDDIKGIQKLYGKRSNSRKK
Excerpt: as §1, §2, §3

[5] = biological target: MMP-9FL (full length Gelatinase B) (Homo sapiens, UniProt P14780); experiment: Thiopeptolide hydrolysis assay, MMP-9FL; conditions: thiopeptolide substrate, HEPES pH 7.0, 22° C.
Excerpt: as §1, §2, §3

[6] = biological target: MMP-13CD (catalytic domain of collagenase 3) (Homo sapiens, UniProt P45452); experiment: Thiopeptolide hydrolysis assay, MMP-13CD; conditions: thiopeptolide substrate, HEPES pH 7.0, 22° C.
Excerpt: as §1, §2, §3

[7] = biological target: MMP-14CD (catalytic domain of MMP-14) (Homo sapiens, UniProt P50281); experiment: Thiopeptolide hydrolysis assay, MMP-14CD; conditions: thiopeptolide substrate, HEPES pH 7.0, 22° C.
Excerpt: as §1, §2, §3

MMP-12CD = biological target: T4, MMP-12CD (Homo sapiens, UniProt P39900); experiment: Thiopeptolide hydrolysis assay, MMP-12CD; conditions: thiopeptolide substrate, HEPES pH 7.0, 22° C.
T4 construct: MMP-12CD
Excerpt: as §1, §2, §3

Chain of MMP-9FL (full length Gelatinase B) (P14780 94-707, species assumed): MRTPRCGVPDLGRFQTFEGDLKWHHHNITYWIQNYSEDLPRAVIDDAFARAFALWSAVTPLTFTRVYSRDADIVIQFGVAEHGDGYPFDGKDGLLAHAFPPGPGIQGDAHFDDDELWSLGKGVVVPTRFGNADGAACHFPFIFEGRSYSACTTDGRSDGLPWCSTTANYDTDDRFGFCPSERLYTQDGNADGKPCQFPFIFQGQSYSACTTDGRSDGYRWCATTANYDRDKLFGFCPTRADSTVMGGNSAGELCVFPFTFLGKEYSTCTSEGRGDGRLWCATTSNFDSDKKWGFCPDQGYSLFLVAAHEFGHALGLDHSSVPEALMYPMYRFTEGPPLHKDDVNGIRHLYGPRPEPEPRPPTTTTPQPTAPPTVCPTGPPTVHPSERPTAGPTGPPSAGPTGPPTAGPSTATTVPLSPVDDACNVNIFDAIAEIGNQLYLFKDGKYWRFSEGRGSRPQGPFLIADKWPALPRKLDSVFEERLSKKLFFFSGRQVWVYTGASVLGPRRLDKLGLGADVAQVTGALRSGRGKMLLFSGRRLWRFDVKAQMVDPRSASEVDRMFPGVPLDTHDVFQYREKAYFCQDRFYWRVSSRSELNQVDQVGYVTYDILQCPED
Chain of MMP-3CD (catalytic domain of stromelysin-1) (P08254 100-272 limits assumed): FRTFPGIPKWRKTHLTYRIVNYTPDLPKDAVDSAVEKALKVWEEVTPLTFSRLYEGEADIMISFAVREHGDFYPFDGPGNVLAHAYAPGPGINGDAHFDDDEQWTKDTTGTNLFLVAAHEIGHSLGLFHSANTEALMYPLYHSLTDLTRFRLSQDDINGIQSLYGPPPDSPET
T4 sequence (P39900 106-263 limits assumed): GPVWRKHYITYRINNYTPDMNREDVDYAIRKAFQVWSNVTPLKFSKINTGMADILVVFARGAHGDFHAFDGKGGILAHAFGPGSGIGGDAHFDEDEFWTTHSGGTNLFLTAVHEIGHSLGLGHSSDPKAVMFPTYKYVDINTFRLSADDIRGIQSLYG

Row | Compound | IC50 [1] [µM] | IC50 [2] [µM] | IC50 [3] [µM] | IC50 [4] [µM] | IC50 [5] [µM] | IC50 [6] [µM] | IC50 [7] [µM] | IC50 (MMP-12CD) [µM]
1 | CC1(C)SCCN(S(=O)(=O)c2ccc(-c3ccc(Br)cc3)cc2)[C@H]1C(=O)O [Example 1, (S)-4-(4′-Bromo-biphenyl-4-sulfonyl)-2,2-dimethyl-thiomorpholine-3-carboxylic acid] | 3.1 | 0.006 | 0.003 | 10 | 0.26 | 0.016 | 0.048 | –
2 | CC1(C)SCCN(S(=O)(=O)c2ccc(-c3ccc(Br)cc3)cc2)[C@H]1C(=O)NO [Example 2, (S)-4-(4′-Bromo-biphenyl-4-sulfonyl)-2,2-dimethyl-thiomorpholine-3-carboxylic acid hydroxyamide] | 0.002 | 0.002 | 0.002 | 0.037 | 0.001 | 0.001 | 0.001 | –
3 | CC1(C)[C@H](C(=O)O)N(S(=O)(=O)c2ccc(-c3ccc(Br)cc3)cc2)CCS1(=O)=O [Example 3, (S)-4-(4′-Bromo-biphenyl-4-sulfonyl)-2,2-dimethyl-1,1-dioxo-thiomorpholine-3-carboxylic acid] | 1.7 | 0.012 | 0.005 | 8.8 | 0.78 | 0.032 | 0.059 | –
4 | CC1(C)[C@H](C(=O)NO)N(S(=O)(=O)c2ccc(-c3ccc(Br)cc3)cc2)CCS1(=O)=O [Example 4, (S)-4-(4′-Bromo-biphenyl-4-sulfonyl)-2,2-dimethyl-1,1-dioxo-thiomorpholine-3-carboxylic acid hydroxyamide] | 0.005 | 0.001 | 0.003 | 0.031 | 0.004 | 0.001 | 0.002 | –
5 | CC1(C)SCCN(S(=O)(=O)c2ccc(-c3ccc(CO)cc3)cc2)[C@H]1C(=O)O [Example 5, (S)-4-(4′-Hydroxymethyl-biphenyl-4-sulfonyl)-2,2-dimethyl-thiomorpholine-3-carboxylic acid] | 1.5 | 0.018 | 0.027 | 10 | 0.063 | 0.047 | 0.24 | –
6 | CC1(C)SCCN(S(=O)(=O)c2ccc(-c3ccc4ccccc4c3)cc2)[C@H]1C(=O)O [Example 36, (S)-2,2-Dimethyl-4-(4-naphthalen-2-yl-benzenesulfonyl)-thiomorpholine-3-carboxylic acid] | 10.8 | 0.00635 | 0.0104 | 31.7 | 0.13 | 0.0108 | 0.0567 | 0.00113
7 | CC1(C)SCCN(S(=O)(=O)c2ccc(-c3ccc(-c4ccccc4)cc3)cc2)[C@H]1C(=O)O [Example 38, (S)-2,2-Dimethyl-4-([1,1′;4′,1″]terphenyl-4-sulfonyl)-thiomorpholine-3-carboxylic acid] | 1.17 | 0.00135 | 0.00295 | 2.67 | 0.0032 | 0.00145 | 0.0343 | 0.001
8 | CC1(C)SCCN(S(=O)(=O)c2ccc(-c3ccc(F)cc3F)cc2)[C@H]1C(=O)O [Example 39, (S)-4-(2′,4′-Difluoro-biphenyl-4-sulfonyl)-2,2-dimethyl-thiomorpholine-3-carboxylic acid] | 3.25 | 0.115 | 0.0285 | 25 | 2.78 | 0.16 | 0.67 | 0.013
9 | CC1(C)SCCN(S(=O)(=O)c2ccc(-c3ccc(Oc4ccccc4)cc3)cc2)[C@H]1C(=O)O [Example 40, (S)-2,2-Dimethyl-4-(4′-phenoxy-biphenyl-4-sulfonyl)-thiomorpholine-3-carboxylic acid] | – | 0.17 | 0.0094 | 13 | 2.2 | 0.1 | 1.5 | 0.004
10 | CC1(C)SCCN(S(=O)(=O)c2ccc(-c3ccc(OC(F)(F)F)cc3)cc2)[C@H]1C(=O)O [Example 45, (S)-2,2-Dimethyl-4-(4′-trifluoromethoxy-biphenyl-4-sulfonyl)-thiomorpholine-3-carboxylic acid] | 5.75 | 0.0027 | 0.004 | – | 0.098 | – | 0.128 | 0.001
11 | CCc1ccc(-c2ccc(S(=O)(=O)N3CCSC(C)(C)[C@@H]3C(=O)O)cc2)cc1 [Example 47, (S)-4-(4′-Ethyl-biphenyl-4-sulfonyl)-2,2-dimethyl-thiomorpholine-3-carboxylic acid] | 5.4 | 0.0061 | 0.0074 | 9 | 0.14 | 0.01 | – | 0.00125
12 | COc1ccc(-c2ccc(S(=O)(=O)N3CCSC(C)(C)[C@@H]3C(=O)O)cc2)cc1C=O [Example 48, (S)-4-(3′-Formyl-4′-methoxy-biphenyl-4-sulfonyl)-2,2-dimethyl-thiomorpholine-3-carboxylic acid] | – | 1.55 | 0.775 | – | 25.8 | 2.04 | 0.037 | –
13 | CN(C)c1ccc(-c2ccc(S(=O)(=O)N3CCSC(C)(C)[C@@H]3C(=O)O)cc2)cc1 [Example 54] | 11.3 | 0.024 | 0.03 | – | 0.17 | 0.013 | 0.19 | 0.0103
14 | CC1(C)SCCN(S(=O)(=O)c2ccc(-c3cccc(OC(F)(F)F)c3)cc2)[C@H]1C(=O)O [Example 59, (S)-2,2-Dimethyl-4-(3′-trifluoromethoxy-biphenyl-4-sulfonyl)-thiomorpholine-3-carboxylic acid] | – | 5.2 | 1.1 | – | 30 | 5.3 | – | –
15 | CC(=O)c1cccc(-c2ccc(S(=O)(=O)N3CCSC(C)(C)[C@@H]3C(=O)O)cc2)c1 [Example 61, (S)-4-(3′-Acetyl-biphenyl-4-sulfonyl)-2,2-dimethyl-thiomorpholine-3-carboxylic acid] | – | 3.4 | 0.763 | – | 49 | 2.9 | – | –
